In the NIST ThermoML archive (doi:10.1016/j.jct.2004.10.005):
± gives the expanded uncertainty stated by the source.

Legend:
[1] = molar heat capacity at constant pressure; settings: 101.33 kPa
[2] = Molar enthalpy of transition or fusion

BrC12CC3CC(CC(C3)C1)C2 [1-bromotricyclo[3.3.1.1(3,7)]decane]
[1]
Settings | molar heat capacity at constant pressure [J/K/mol]
5 K, Crystal 4, Vacuum adiabatic calorimetry | 0.6485 ± 0.024
10 K, Crystal 4, Vacuum adiabatic calorimetry | 4.755 ± 0.093
15 K, Crystal 4, Vacuum adiabatic calorimetry | 11.51 ± 0.19
20 K, Crystal 4, Vacuum adiabatic calorimetry | 18.36 ± 0.25
25 K, Crystal 4, Vacuum adiabatic calorimetry | 24.35 ± 0.27
30 K, Crystal 4, Vacuum adiabatic calorimetry | 29.52 ± 0.26
31 K, Crystal 3, Vacuum adiabatic calorimetry | 30.48 ± 0.26
31 K, Crystal 4, Vacuum adiabatic calorimetry | 30.48 ± 0.26
35 K, Crystal 3, Vacuum adiabatic calorimetry | 33.96 ± 0.22
40 K, Crystal 3, Vacuum adiabatic calorimetry | 37.77 ± 0.17
45 K, Crystal 3, Vacuum adiabatic calorimetry | 41.08 ± 0.18
50 K, Crystal 3, Vacuum adiabatic calorimetry | 44.09 ± 0.2
60 K, Crystal 3, Vacuum adiabatic calorimetry | 49.73 ± 0.22
70 K, Crystal 3, Vacuum adiabatic calorimetry | 55.13 ± 0.24
80 K, Crystal 3, Vacuum adiabatic calorimetry | 60.5 ± 0.27
90 K, Crystal 3, Vacuum adiabatic calorimetry | 65.87 ± 0.32
100 K, Crystal 3, Vacuum adiabatic calorimetry | 71.25 ± 0.34
110 K, Crystal 3, Vacuum adiabatic calorimetry | 76.65 ± 0.37
120 K, Crystal 3, Vacuum adiabatic calorimetry | 82.11 ± 0.39
130 K, Crystal 3, Vacuum adiabatic calorimetry | 87.63 ± 0.4
140 K, Crystal 3, Vacuum adiabatic calorimetry | 93.24 ± 0.42
150 K, Crystal 3, Vacuum adiabatic calorimetry | 99.03 ± 0.45
160 K, Crystal 3, Vacuum adiabatic calorimetry | 105 ± 0.5
170 K, Crystal 3, Vacuum adiabatic calorimetry | 111.2 ± 0.5
180 K, Crystal 3, Vacuum adiabatic calorimetry | 117.7 ± 0.6
190 K, Crystal 3, Vacuum adiabatic calorimetry | 124.4 ± 0.6
200 K, Crystal 3, Vacuum adiabatic calorimetry | 131.5 ± 0.6
210 K, Crystal 3, Vacuum adiabatic calorimetry | 138.9 ± 0.6
220 K, Crystal 3, Vacuum adiabatic calorimetry | 146.5 ± 0.7
230 K, Crystal 3, Vacuum adiabatic calorimetry | 154.9 ± 0.7
240 K, Crystal 3, Vacuum adiabatic calorimetry | 164.8 ± 0.7
250 K, Crystal 3, Vacuum adiabatic calorimetry | 175.5 ± 0.8
260 K, Crystal 3, Vacuum adiabatic calorimetry | 185.9 ± 0.8
270 K, Crystal 3, Vacuum adiabatic calorimetry | 195.4 ± 0.8
273.15 K, Crystal 3, Vacuum adiabatic calorimetry | 198.1 ± 0.9
280 K, Crystal 3, Vacuum adiabatic calorimetry | 203.6 ± 0.9
282.2 K, Crystal 2, Vacuum adiabatic calorimetry | 205.2 ± 0.9
282.2 K, Crystal 3, Vacuum adiabatic calorimetry | 205.2 ± 0.9
290 K, Crystal 2, Vacuum adiabatic calorimetry | 210.6 ± 0.9
298.15 K, Crystal 2, Vacuum adiabatic calorimetry | 215.4 ± 0.9
300 K, Crystal 2, Vacuum adiabatic calorimetry | 216.5 ± 0.9
309.9 K, Crystal 1, Vacuum adiabatic calorimetry | 246.3 ± 1.1
309.9 K, Crystal 2, Vacuum adiabatic calorimetry | 221.9 ± 0.9
310 K, Crystal 1, Vacuum adiabatic calorimetry | 246.5 ± 1.1
320 K, Crystal 1, Vacuum adiabatic calorimetry | 257.5 ± 1.1
330 K, Crystal 1, Large sample (1 g) DSC | 279.7 ± 6.9
340 K, Crystal 1, Large sample (1 g) DSC | 297 ± 7.2
350 K, Crystal 1, Large sample (1 g) DSC | 302.1 ± 7.4
360 K, Crystal 1, Large sample (1 g) DSC | 305.2 ± 7.5
370 K, Crystal 1, Large sample (1 g) DSC | 305.7 ± 7.5
380 K, Crystal 1, Large sample (1 g) DSC | 305.9 ± 7.5
390 K, Crystal 1, Large sample (1 g) DSC | 306.1 ± 7.5
391.8 K, Crystal 1, Large sample (1 g) DSC | 306.1 ± 7.5

[1], Liquid, Large sample (1 g) DSC
Settings | molar heat capacity at constant pressure [J/K/mol]
391.8 K | 311.4 ± 7.6
400 K | 311.6 ± 7.6
410 K | 312 ± 7.6
420 K | 312.3 ± 7.6
430 K | 312.7 ± 7.7

[2]
Settings | Molar enthalpy of transition or fusion [kcal/mol]
Crystal 1, DSC | 0.949 ± 0.0502
Crystal 2, Adiabatic calorimetry | 1.77 ± 0.0598
Crystal 2, DSC | 1.79 ± 0.0693
Crystal 3, Adiabatic calorimetry | 0.3315 ± 0.00239
Crystal 4, Adiabatic calorimetry | 0.000344 ± 0.000621

Settings | Triple point temperature [K]
Crystal 1, DTA | 391.8 ± 0.4
Crystal 2, Adiabatic calorimetry | 309.9 ± 0.1
Crystal 2, DTA | 309.8 ± 0.4
Crystal 3, Adiabatic calorimetry | 282.2 ± 0.1
Crystal 4, Adiabatic calorimetry | 31 ± 0.1
